Structures are written as SMILES. Where two headings read alike, the source gives them in different places.

10 compounds from patent publication US11161850B2, “Fused pyrazine derivatives as A2A / A2B inhibitors” (Incyte Corporation, priority 2018, dated 2021) can be followed below.

Experiment [1] concerns the target Adenosine A2A (Homo sapiens (Human), UniProt P29274). Description: A2A Tag-Lite HTRF assay. In kind it is binding. The source says:
Example C. A2A Tag-Lite® HTRF Assay
(Time-resolved FRET reads energy transfer from a long-lived donor to a nearby acceptor.)

Experiment [2] concerns the target human adenosine A2B receptor (Homo sapiens (Human), UniProt P29275). Description: Adenosine A2B Receptor Cyclic AMP GS Assay. The format is cell-based. To be noted: HEK-293 cells expressing human A2B, agonist NECA 12 nM. Summed up: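 Stably transfected HEK-293 cells were preincubated with compound for 30 min at room temperature, then stimulated with 12 nM NECA for 60 min. cAMP accumulation was read by FRET (665/620 ratio), and EC50 was fitted from percent of control versus log compound concentration.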

Where [3] appears, read: Tag-Lite Adenosine A2A labeled cells, fluorescent ligand 12.5 nM, read-out: A2A_Ki.
Where [4] appears, read: read-out: A2A_Ki, Tag-Lite Adenosine A2A labeled cells, fluorescent ligand 12.5 nM.

Sequence of Adenosine A2A (P29274 whole entry): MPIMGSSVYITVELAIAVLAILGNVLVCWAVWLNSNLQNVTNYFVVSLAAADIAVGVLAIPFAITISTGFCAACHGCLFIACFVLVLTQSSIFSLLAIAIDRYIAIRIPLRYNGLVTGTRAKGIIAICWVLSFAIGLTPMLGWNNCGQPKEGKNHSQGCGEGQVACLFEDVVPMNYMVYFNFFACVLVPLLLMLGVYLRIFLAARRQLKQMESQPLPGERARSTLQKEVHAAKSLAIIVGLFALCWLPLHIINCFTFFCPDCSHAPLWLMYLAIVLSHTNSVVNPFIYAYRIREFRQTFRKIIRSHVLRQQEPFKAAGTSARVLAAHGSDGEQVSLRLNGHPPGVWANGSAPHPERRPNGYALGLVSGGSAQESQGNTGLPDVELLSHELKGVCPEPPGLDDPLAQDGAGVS
Sequence of human adenosine A2B receptor (P29275 whole entry): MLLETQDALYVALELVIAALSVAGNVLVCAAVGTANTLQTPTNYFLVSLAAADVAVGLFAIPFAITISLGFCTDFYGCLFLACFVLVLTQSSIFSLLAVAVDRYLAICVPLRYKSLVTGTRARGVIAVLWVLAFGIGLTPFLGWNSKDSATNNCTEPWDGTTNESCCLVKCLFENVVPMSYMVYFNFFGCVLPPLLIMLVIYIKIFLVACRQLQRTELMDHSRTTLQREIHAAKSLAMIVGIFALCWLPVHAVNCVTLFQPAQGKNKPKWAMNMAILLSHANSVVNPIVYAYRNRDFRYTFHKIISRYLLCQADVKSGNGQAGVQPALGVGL

With `N#Cc1cccc(-c2nc(N)c3nc(Cc4c(F)cccc4CN4CCN5C(=O)CCC5C4)nn3c2-c2ccncn2)c1` (centres unmarked) [Example 67, 3-(8-amino-2-(2-fluoro-6-((6-oxohexahydropyrrolo[1,2-a]pyrazin-2(1H)-yl)methyl)benzyl)-5-(pyrimidin-4-yl)-[1,2,4]triazolo[1,5-a]pyrazin-6-yl)benzonitrile], the Ki in experiment [1] (setting [3]) was less than 10 nM. The same compound registered an EC50 in experiment [2] (A2B_cAMP_EC50 (nM)) of less than 10 nM.
Take `CCNC(=O)c1cc2c(N)nc(-c3cccc(C#N)c3)c(-c3ccc(=O)n(C)c3)n2n1` [Example 3, 4-Amino-6-(3-cyanophenyl)-N-ethyl-7-(1-methyl-6-oxo-1,6-dihydropyridin-3-yl)pyrazolo[1,5-a]pyrazine-2-carboxamide]: the Ki in experiment [1] (setting [3]) was less than 10 nM. Moreover, in experiment [2] (A2B_cAMP_EC50 (nM)), the EC50 is 100 to 1000 nM.
Taken in the same sequence, the figures for `Cn1nccc1-c1cccc(F)c1Cc1nc2c(N)nc(-c3cccc(C#N)c3)c(-c3ccncn3)n2n1` [Example 64, 3-(8-amino-2-(2-fluoro-6-(1-methyl-1H-pyrazol-5-yl)benzyl)-5-(pyrimidin-4-yl)-[1,2,4]triazolo[1,5-a]pyrazin-6-yl)benzonitrile] were less than 10 nM and less than 10 nM.
Taken in the same sequence, the figures for `CCn1nccc1-c1c(-c2cccc(C#N)c2)nc(N)c2cc(Cc3ccccn3)nn12` [Example 18, 3-(4-Amino-7-(1-ethyl-1H-pyrazol-5-yl)-2-(pyridin-2-ylmethyl)pyrazolo[1,5-a]pyrazin-6-yl)benzonitrile] were less than 10 nM and less than 10 nM.
Taken in the same sequence, the figures for `CN(C)C(=O)Cn1cc(-c2cccc(F)c2Cc2nc3c(N)nc(-c4cccc(C#N)c4F)cn3n2)cn1` [Example 114, 2-(4-(2-((8-amino-6-(3-cyano-2-fluorophenyl)-[1,2,4]triazolo[1,5-a]pyrazin-2-yl)methyl)-3-fluorophenyl)-1H-pyrazol-1-yl)-N,N-dimethylacetamide] were less than 10 nM and 10 to 100 nM.
With `N#Cc1cccc(-c2nc(N)c3ncnn3c2-c2ccc(=O)[nH]c2)c1` [Example 15, 3-(8-Amino-5-(6-oxo-1,6-dihydropyridin-3-yl)-[1,2,4]triazolo[1,5-a]pyrazin-6-yl)benzonitrile], the Ki in experiment [1] (setting [3]) is less than 10 nM. The compound further yielded an EC50 in experiment [2] (A2B_cAMP_EC50 (nM)) of less than 10 nM.
As for `N#Cc1cccc(-c2nc(N)c3nc(C(O)c4c(F)cccc4OC(F)F)nn3c2-c2ccncn2)c1` (single isomer, unassigned) [Example 98, 3-(8-amino-2-((2-(difluoromethoxy)-6-fluorophenyl)(hydroxy)methyl)-5-(pyrimidin-4-yl)-[1,2,4]triazolo[1,5-a]pyrazin-6-yl)benzonitrile], the Ki in experiment [1] (setting [4]) was less than 10 nM. For the same compound, in experiment [2] (read-out: A2B_cAMP_EC50), the EC50 is less than 10 nM.
`N#Cc1cccc(-c2nc(N)c3nc(C(O)c4ccccc4F)nn3c2-c2ccncn2)c1` (single isomer, unassigned) [Example 55, 3-(8-Amino-2-((2-fluorophenyl)(hydroxy)methyl)-5-(pyrimidin-4-yl)-[1,2,4]triazolo[1,5-a]pyrazin-6-yl)benzonitrile]: in experiment [1], the Ki is less than 10 nM. In addition, in experiment [2] (A2B_cAMP_EC50 (nM)), the EC50 is less than 10 nM.
On to `N#Cc1cccc(-c2cn3nc(Cc4ncccc4Nc4cnn(C5CCOCC5)c4)nc3c(N)n2)c1F` [Example 121, 3-(8-amino-2-((3-((1-(tetrahydro-2H-pyran-4-yl)-1H-pyrazol-4-yl)amino)pyridin-2-yl)methyl)-[1,2,4]triazolo[1,5-a]pyrazin-6-yl)-2-fluorobenzonitrile], for which the Ki in experiment [1] (setting [3]) was less than 10 nM. Further, the EC50 in experiment [2] (A2B_cAMP_EC50 (nM)) is 10 to 100 nM.
As for `N#Cc1cccc(-c2nc(N)c3nc(C(O)c4c(F)cccc4CN4CCCC4)nn3c2-c2ccncn2)c1` (single isomer, unassigned) [Example 111, 3-(8-amino-2-((2-fluoro-6-(pyrrolidin-1-ylmethyl)phenyl)(hydroxy)methyl)-5-(pyrimidin-4-yl)-[1,2,4]triazolo[1,5-a]pyrazin-6-yl)benzonitrile], the Ki in experiment [1] (setting [4]) was less than 10 nM. For the same compound, the EC50 in experiment [2] (A2B_cAMP_EC50 (nM)) was less than 10 nM.
